Measured values from patent US12331094B2 (Bayer Aktiengesellschaft, priority 2018, dated 2025).
Positions of bridges follow the written chain, without caps; N, C: chain ends. Residues, ends and D or L forms follow the SMILES beside them.

Legend:
[1] = target: T1, insulin degrading enzyme (IDE) (Rattus norvegicus, UniProt P35559); test: Sensitivity towards proteolytic degradation by IDE (reporter cell activity after incubation); settings: 4 hours incubation with 0.6 μg/ml IDE at 37° C., then reporter cell activity
T1 sequence (P35559 1-1019): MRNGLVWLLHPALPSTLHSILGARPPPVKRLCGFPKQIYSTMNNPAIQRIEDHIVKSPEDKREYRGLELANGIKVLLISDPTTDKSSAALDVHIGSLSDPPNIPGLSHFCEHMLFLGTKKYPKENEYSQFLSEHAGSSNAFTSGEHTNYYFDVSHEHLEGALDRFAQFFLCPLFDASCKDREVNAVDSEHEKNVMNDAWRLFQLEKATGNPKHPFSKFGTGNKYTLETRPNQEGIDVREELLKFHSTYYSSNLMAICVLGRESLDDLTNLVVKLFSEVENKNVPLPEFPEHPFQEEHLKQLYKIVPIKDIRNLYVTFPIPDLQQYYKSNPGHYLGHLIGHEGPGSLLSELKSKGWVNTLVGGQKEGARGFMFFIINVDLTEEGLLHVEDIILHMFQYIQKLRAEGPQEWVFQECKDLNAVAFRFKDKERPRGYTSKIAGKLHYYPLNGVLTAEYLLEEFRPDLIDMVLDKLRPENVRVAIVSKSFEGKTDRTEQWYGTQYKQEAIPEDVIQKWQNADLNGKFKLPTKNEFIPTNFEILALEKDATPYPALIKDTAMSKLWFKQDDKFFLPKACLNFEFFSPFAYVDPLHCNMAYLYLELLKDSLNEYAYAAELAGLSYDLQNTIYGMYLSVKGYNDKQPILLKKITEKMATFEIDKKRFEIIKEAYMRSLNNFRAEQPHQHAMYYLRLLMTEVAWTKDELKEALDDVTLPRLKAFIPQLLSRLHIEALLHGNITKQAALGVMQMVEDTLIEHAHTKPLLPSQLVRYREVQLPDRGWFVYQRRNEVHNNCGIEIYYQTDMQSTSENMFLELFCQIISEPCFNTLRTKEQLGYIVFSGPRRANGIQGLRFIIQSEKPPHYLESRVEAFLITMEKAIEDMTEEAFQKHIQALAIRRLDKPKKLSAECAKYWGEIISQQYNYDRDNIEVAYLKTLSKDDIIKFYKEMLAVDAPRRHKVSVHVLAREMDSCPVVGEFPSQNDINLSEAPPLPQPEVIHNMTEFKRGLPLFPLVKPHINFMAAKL

[2] = target: T2, neutral endopeptidase (NEP) (Homo sapiens, UniProt P08473); test: Sensitivity towards proteolytic degradation by NEP (reporter cell activity after incubation); type: in vitro ADME; settings: 4 hours incubation with 0.6 μg/ml NEP at 37° C., then reporter cell activity
T2 construct: purchased R&D Systems 1182-ZNC

[3] = test system: spontaneously hypertensive rats; test: Radiotelemetric blood pressure in conscious spontaneously hypertensive rats; type: in vivo, rat; settings: 500 μg dose intraperitoneally
Protocol: Blood pressure and heart rate were monitored in freely moving conscious animals by radiotelemetry (Data Sciences International). Female spontaneously hypertensive rats (SHR/N Crl BR, Charles River) with a body weight of 210-300 g were used for these studies. All animals were housed in individual cages at 22-24° C. ambient temperature and maintained on a 12-hour light/dark cycle with free access to standard laboratory rat chow and water ad libitum. Telemeter (HD-10, DSI) implantation was performed a minimum of 14 days before animals were used for blood pressure measurements. Surgery was performed under aseptic conditions. After shaving the abdominal wall, a midline abdominal incision was made, and the fluid-filled sensor catheter was inserted upstream into the exposed descending aorta between the iliac bifurcation and the renal arteries. According to the DSI guidelines the tip of the telemetric catheter was located caudal to the renal arteries and secured by tissue adhesive. The transmitter body was affixed to the inner peritoneal wall before closure of the abdomen. […] Data are expressed as % of basal values±SEM of at least 4 animals per group. The basal value for each animal was calculated as the average of the values measured in two hours prior to substance application (7:00-9:00 AM). Data are then expressed as averages every half hour, starting 15 minutes post application. […]

[4] = test system: PE-contracted aortic rings; test: Vasorelaxation of isolated phenylephrine-contracted rat aortic rings
Protocol: All experiments were conducted in accordance with institutional guidelines and approved by the local committee on animal experiments. Male Sprague-Dawley rats (weighing 250-300 g) were anesthetized with pentobarbital sodium (40 mg/kg i.p.), killed by decapitation, and exsanguinated. The thoracic aorta was excised and placed in ice-cold Krebs buffer of the following composition: 130 mM NaCl, 14.9 mM NaHCO3, 5.5 mM dextrose, 4.7 mM KCl, 1.18 mM KH2PO4, 1.17 mM MgSO47H2O, and 1.6 mM CaCl22H2O. The vessel was pinned in a Sylgard Petri dish filled with chilled Krebs' solution, cleaned of fat and connective tissue, and cut into ring segments of approximately 3 to 4 mm in length. […] Changes in isometric force were recorded using a PowerLab data acquisition system (software Lab Chart 7.0)
After the equilibration period, aortic rings were challenged with 80 mM KCl to check tissue viability. Next, the endothelial integrity of the preparations was determined by verifying the responsiveness to acetylcholine (ACh, 1 μM) in vessels pre-contracted with Phenylephrine (PE, 1 μM). After wash-out and a period of equilibration, Phenylephrine (PE, 1 μM) was used to induce contraction, thereafter natriuretic peptides and natriuretic peptide engrafted IgGs were evaluated for vasorelaxation.

T2 sequence (P08473 52-750 limits assumed): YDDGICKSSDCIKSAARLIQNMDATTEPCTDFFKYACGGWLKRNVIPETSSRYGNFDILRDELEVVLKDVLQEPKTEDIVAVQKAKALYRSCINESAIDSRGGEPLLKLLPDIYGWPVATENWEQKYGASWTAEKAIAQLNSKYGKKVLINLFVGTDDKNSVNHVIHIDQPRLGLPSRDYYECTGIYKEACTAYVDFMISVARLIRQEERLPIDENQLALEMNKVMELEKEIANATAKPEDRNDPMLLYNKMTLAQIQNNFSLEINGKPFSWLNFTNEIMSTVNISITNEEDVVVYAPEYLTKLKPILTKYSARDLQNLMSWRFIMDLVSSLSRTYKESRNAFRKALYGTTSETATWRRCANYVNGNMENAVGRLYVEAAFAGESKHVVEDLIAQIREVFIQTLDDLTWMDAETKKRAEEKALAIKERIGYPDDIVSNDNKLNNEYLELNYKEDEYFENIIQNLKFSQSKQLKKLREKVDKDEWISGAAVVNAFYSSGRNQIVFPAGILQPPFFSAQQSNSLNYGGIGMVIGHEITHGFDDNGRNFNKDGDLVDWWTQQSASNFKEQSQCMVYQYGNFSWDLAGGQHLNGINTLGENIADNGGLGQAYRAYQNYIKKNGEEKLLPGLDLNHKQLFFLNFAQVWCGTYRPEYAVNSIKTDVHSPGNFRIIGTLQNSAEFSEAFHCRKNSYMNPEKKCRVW

Compound	proteolytic degradation by IDE [1]	proteolytic degradation by NEP [2]	drop in mean arterial blood pressure (MAP) [3]	duration of effect [3]	vasodilation in PE-contracted aortic rings [4]	Potency (log EC50 values) ([4]; vasodilation, endothelium-intact rat aortic rings contracted by phenylephrine (1 μM))
CC[C@H](C)[C@@H]1NC(=O)[C@H](CCCNC(=N)N)NC(=O)[C@H](CC(=O)O)NC(=O)[C@H]([C@@H](C)CC)NC(=O)[C@H](CCCCN)NC(=O)[C@H](CCC(N)=O)NC(=O)CNC(=O)[C@H](Cc2ccccc2)NC(=O)[C@@H](NC(=O)[C@H](CO)NC(=O)[C@H](CO)NC(=O)[C@H](CO)NC(=O)[C@H](Cc2c[nH]cn2)NC(=O)[C@H](C)NC(=O)[C@H](CCSC)NC(=O)[C@H](CCCCN)NC(=O)[C@H](CO)NC(=O)[C@@H](N)CC(N)=O)CSSC[C@@H](C(=O)N[C@@H](CC(=O)O)C(=O)NCC(=O)N[C@@H](CC(C)C)C(=O)N[C@@H](CCCNC(=N)N)C(=O)N[C@@H](CC(C)C)C(=O)N[C@@H](Cc2ccccc2)C(=O)O)NC(=O)CNC(=O)[C@H](CC(C)C)NC(=O)[C@H](CCCNC(=N)N)NC(=O)[C@H](CO)NC(=O)[C@H](C(C)C)NC(=O)[C@H](C)NC(=O)CNC1=O [BNP, Brain Natriuretic Peptide, reference compound] (H-NSKMAHSSSCFGQKIDRIGAVSRLGCDGLRLF-OH; disulfide 10-26; N-terminus and C-terminus assumed)	high sensitivity	high sensitivity				
ANP peptide: Rat ANP peptide (ADH-GM-10057T, Santai Labs) used as a reference (SLRRSSCFGGRIDRIGAQSGLGCNSFRY) [reference compound]			approximately 25%	6 to 8 h	dose-dependent vasodilation	−7.4
